Results reported in the NIST ThermoML archive (doi:10.1021/je300199a).
Values joined by “and” are separate entries in the source; they are usually repeats but may differ in a detail not shown here. Equal values may be shown once.

Details: Calculated from knudsen effusion weight loss

[Cu] [copper]
Details	vapor or sublimation pressure
1211 K, Crystal	3.2e-06 kPa
1229 K, Crystal	2.6e-06 kPa
1249 K, Crystal	6.5e-06 kPa and 5.9e-06 kPa
1267 K, Crystal	1e-05 kPa
1281 K, Crystal	1.4e-05 kPa and 1.5e-05 kPa
1300 K, Crystal	2.1e-05 kPa and 1.9e-05 kPa
1314 K, Crystal	2.8e-05 kPa and 2.7e-05 kPa
1329 K, Crystal	4.5e-05 kPa and 3.8e-05 kPa
1343 K, Crystal	5.4e-05 kPa and 5.1e-05 kPa
1356 K, Crystal	7e-05 kPa
1370 K, Liquid	9e-05 kPa
1379 K, Liquid	0.00013 kPa
1384 K, Liquid	0.00012 kPa
1388 K, Liquid	0.00014 kPa
1397 K, Liquid	0.00015 kPa
1409 K, Liquid	0.00018 kPa and 0.00019 kPa
1421 K, Liquid	0.00023 kPa
1432 K, Liquid	0.00027 kPa and 0.00028 kPa
1434 K, Liquid	0.00033 kPa
1443 K, Liquid	0.00034 kPa
1454 K, Liquid	0.0004 kPa and 0.00041 kPa
1463 K, Liquid	0.00047 kPa and 0.00049 kPa
1474 K, Liquid	0.00055 kPa and 0.00057 kPa
1484 K, Liquid	0.00065 kPa and 0.0007 kPa
1494 K, Liquid	0.0007 kPa and 0.0008 kPa
1503 K, Liquid	0.0008 kPa and 0.0009 kPa
1512 K, Liquid	0.0008 kPa and 0.0011 kPa
1522 K, Liquid	0.0013 kPa and 0.0012 kPa
1530 K, Liquid	0.0015 kPa and 0.0014 kPa
1539 K, Liquid	0.0016 kPa
1547 K, Liquid	0.0018 kPa and 0.0019 kPa
1555 K, Liquid	0.0021 kPa
1565 K, Liquid	0.0023 kPa and 0.0024 kPa and 0.0027 kPa
1572 K, Liquid	0.0026 kPa and 0.0028 kPa and 0.0031 kPa
1581 K, Liquid	0.0029 kPa and 0.0031 kPa and 0.0035 kPa
1588 K, Liquid	0.0031 kPa and 0.0036 kPa and 0.004 kPa
1596 K, Liquid	0.0038 kPa and 0.0041 kPa and 0.0045 kPa
1604 K, Liquid	0.0039 kPa and 0.0046 kPa and 0.005 kPa
1611 K, Liquid	0.0042 kPa and 0.0052 kPa and 0.0055 kPa
1619 K, Liquid	0.0046 kPa and 0.0058 kPa and 0.006 kPa
1628 K, Liquid	0.005 kPa and 0.0066 kPa

O=[Si] [silicon monooxide]
Crystal
Details	vapor or sublimation pressure [kPa]
1211 K	3e-06
1229 K	1.6e-06
1249 K	8e-06
1267 K	1.3e-05
1281 K	2.2e-05
1300 K	4e-05
1314 K	6e-05
1329 K	9e-05
1343 K	0.00013
1356 K	0.0002
1370 K	0.00028
1384 K	0.0004
1397 K	0.0005
1409 K	0.0007
1421 K	0.001
1432 K	0.0013
1443 K	0.0017
1454 K	0.0023
1463 K	0.0029
1474 K	0.0036
1484 K	0.005
1494 K	0.006
1503 K	0.007
1512 K	0.009
1522 K	0.011
1530 K	0.013
1539 K	0.015
1547 K	0.018
1555 K	0.021
1565 K	0.024
